Earlier results, collected in EP1147779A1, “A method for rendering ursodeoxycholic acid in soluble form pharmaceutical compositions” (BIOPROGRESS S.p.A., priority 2000, dated 2001).

Key:
[1] = ursodeoxycholic acid as such; background statement

Molecule | solubility [1] | toxicity (general statement, allowed by FAO/WHO as food additive) | passage of the intestinal mucosa / presence in plasma and urine (oral administration to humans)
C[C@H](CCC(=O)O)[C@H]1CC[C@H]2[C@@H]3[C@@H](O)C[C@@H]4C[C@H](O)CC[C@]4(C)[C@H]3CC[C@]12C [Ursodeoxycholic acid] | practically insoluble | – | –
β-cyclodextrin | – | no toxicity | does not overcome the barrier of the intestinal mucosa and is not found either in plasma or in urine
